The values below are quoted from earlier work in patent US20080107723A1, “Methods of Treating Pulmonary Distress” (priority 2006, published 2008).

For data set [1] the following is noted: administered by inhalation; CF patients.
For data set [2], the system named is colony forming units (CFU). As to conditions: administered by inhalation; CF patients.

For the molecule `NC[C@H]1O[C@H](O[C@H]2[C@H](O)[C@@H](O[C@H]3O[C@H](CO)[C@@H](O)[C@H](N)[C@H]3O)[C@H](N)C[C@@H]2N)[C@H](N)C[C@@H]1O` [Tobramycin], the “improvement in FEV1” value in data set [1] is on record as “approximately 10%”. For the same molecule, the “reduction in colony forming units (CFU)” value in data set [2] was “about 2 log units”.

B1: Pulmozyme: recombinant human Dnase administered by inhalation (protein, UniProt P24855 23-282, looked up)
Deoxyribonuclease-1: LKIAAFNIQTFGETKMSNATLVSYIVQILSRYDIALVQEVRDSHLTAVGKLLDNLNQDAPDTYHYVVSEPLGRNSYKERYLFVYRPDQVSAVDSYYYDDGCEPCGNDTFNREPAIVRFFSRFTEVREFAIVPLHAAPGDAVAEIDALYDVYLDVQEKWGLEDVMLMGDFNAGCSYVRPSQWSSIRLWTSPTFQWLIPDSADTTATPTHCAYDRIVVAGMLLRGAVVPDSALPFNFQAAYGLSDQLAQAISDHYPVEVMLK
With B1, in data set [1], the “improvement in FEV1” value is recorded as “approximately 10%”.
